Experimental data published in US6977265B2, “Piperidine CCR-3 receptor antagonists” (Roche Palo Alto LLC, priority 2001, dated 2005).
Structures can show the parent of a compound that is named as a salt.

Key:
CCR-3 receptor = target: T1, CCR-3 receptor (Homo sapiens, UniProt P51677); assay: CCR-3 receptor binding assay, in vitro: inhibition of 125I eotaxin binding to CCR-3 L1.2 transfectant cells; conditions: inhibition of binding of 125I-eotaxin to CCR-3 L1.2 transfected cells, 1 hour at room temperature
T1 construct: expressed in transfected cells; host or cells: L1.2 (murine pre-B lymphoma line) stably transfected with CCR-3
T1 sequence (P51677 1-355): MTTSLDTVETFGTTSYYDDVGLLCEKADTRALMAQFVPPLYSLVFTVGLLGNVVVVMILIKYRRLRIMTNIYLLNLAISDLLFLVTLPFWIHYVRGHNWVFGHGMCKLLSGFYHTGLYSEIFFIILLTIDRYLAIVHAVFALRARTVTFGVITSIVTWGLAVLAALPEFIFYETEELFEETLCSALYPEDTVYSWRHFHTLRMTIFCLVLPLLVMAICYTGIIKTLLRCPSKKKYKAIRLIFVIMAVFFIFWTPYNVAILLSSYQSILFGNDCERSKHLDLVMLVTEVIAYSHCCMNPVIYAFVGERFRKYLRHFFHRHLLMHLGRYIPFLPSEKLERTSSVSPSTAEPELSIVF
Procedure: The CCR-3 antagonistic activity of the compounds of the invention was determined by their ability to inhibit the binding of ^125I eotaxin to CCR-3 L1.2 transfectant cells (see Ponath, P. D. et al., J. Exp. Med., Vol. 183, 2437-2448, (1996)).
The assay was performed in Costar 96-well polypropylene round bottom plates. Test compounds were dissolved in DMSO and then diluted with binding buffer (50 mM HEPES, 1 mM CaCl2, 5 mM MgCl2, 0.5% bovine serum albumin (BSA), 0.02% sodium azide, pH 7.24) such that the final DMSO concentration was 2%. 25 μl of the test solution or only buffer with DMSO (control samples) was added to each well, followed by the addition of 25 μl of ^125I-eotaxin ([…]) (NEX314, New England Nuclear, Boston, Mass.) and 1.5×10^5 of the CCR-3 L1.2 transfected cells in 25 μl binding buffer. The final reaction volume was 75 μl.
After incubating the reaction mixture for 1 hour at room temperature, the reaction was terminated by filtering the reaction mixture through polyethylenimine treated Packard Unifilter GF/C filter plate (Packard, Chicago, Ill.). The filters were washed four times with ice cold wash buffer containing 10 mm HEPES and 0.5M sodium chloride (pH 7.2) and dried at 65° C. for approximately 10 minutes. 25 μl/well of Microscint-20® scintillation fluid (Packard) was added and the radioactivity retained on the filters was determined by using the Packard TopCount®.

Row | Compound | melting point | IC50 (CCR-3 receptor)
1 | COc1cc(NC(=O)N[C@@H]2CCC[C@@H]2N2CCC(Cc3ccc(Cl)cc3)CC2)cc(OC)c1OC (racemic) (as salt: hydrochloride) | 117.5 to 122.5 °C | –
2 | COc1cc(NC(=O)N[C@@H]2CN(C(C)=O)C[C@H]2N2CCC(Cc3ccc(Cl)cc3)CC2)cc(OC)c1OC (racemic) (as salt: hydrochloride) | 155 to 161 °C | –
3 | COc1cc(NC(=O)N[C@@H]2CCCC[C@@H]2N2CCC(Cc3ccc(Cl)cc3)CC2)cc(OC)c1OC (racemic) (as salt: hydrochloride) | 120.1 to 137.3 °C | –
4 | COc1cc(NC(=O)N[C@@H]2CN(S(C)(=O)=O)C[C@H]2N2CCC(Cc3ccc(Cl)cc3)CC2)cc(OC)c1OC (racemic) (as salt: hydrochloride) | 148 to 158 °C | –
5 | COc1cc(NC(=O)N[C@@H]2CN(S(=O)(=O)N(C)C)C[C@H]2N2CCC(Cc3ccc(Cl)cc3)CC2)cc(OC)c1OC (racemic) (as salt: hydrochloride) | 141 to 143 °C | –
6 | COc1cc(NC(=O)N[C@@H]2CN(C(=O)N(C)C)C[C@H]2N2CCC(Cc3ccc(Cl)cc3)CC2)cc(OC)c1OC (racemic) (as salt: hydrochloride) | 142 to 144.5 °C | –
7 | COc1cc(NC(=O)N[C@@H]2CN(C(N)=O)C[C@H]2N2CCC(Cc3ccc(Cl)cc3)CC2)cc(OC)c1OC (racemic) (as salt: hydrochloride) | 158 to 162 °C | –
8 | COC[C@@H]1C[C@@H](N2CCC(Cc3ccc(Cl)cc3)CC2)[C@H](NC(=O)Nc2cc(OC)c(OC)c(OC)c2)C1 (racemic) (as salt: hydrochloride) | 109 to 112 °C | –
9 | COc1cc(NC(=O)N[C@@H]2C[C@H](OC)C[C@H]2N2CCC(Cc3ccc(Cl)cc3)CC2)cc(OC)c1OC (racemic) (as salt: hydrochloride) | 112.5 to 119.5 °C | –
10 | COc1cc(NC(=O)N[C@@H]2CN(CC(N)=O)C[C@H]2N2CCC(Cc3ccc(Cl)cc3)CC2)cc(OC)c1OC (racemic) (as salt: hydrochloride) | 160 to 165 °C | –
11 | COc1cc(NC(=O)N[C@@H]2CN(CCS(C)(=O)=O)C[C@H]2N2CCC(Cc3ccc(Cl)cc3)CC2)cc(OC)c1OC (racemic) (as salt: hydrochloride) | 210.2 to 211.8 °C | –
12 | COc1cc(CCNC(=O)N[C@@H]2CCC[C@H]2N2CCC(Cc3ccc(Cl)cc3)CC2)cc(OC)c1OC (racemic) (as salt: hydrochloride) | 90.3 to 95 °C | –
13 | COc1cc(NC(=O)N[C@@H]2CN(S(N)(=O)=O)C[C@H]2N2CCC(Cc3ccc(Cl)cc3)CC2)cc(OC)c1OC (racemic) (as salt: hydrochloride) | 155.7 to 160 °C | –
14 | CS(=O)(=O)c1ccc(C(=O)N[C@@H]2CC[C@H]2N2CCC(Cc3ccc(Cl)cc3)CC2)cc1 (racemic) (as salt: hydrochloride) | 173.2 to 184.1 °C | –
15 | COc1cc(NC(=O)N[C@@H]2CC[C@H]2N2CCC(Cc3ccc(Cl)cc3)CC2)cc(OC)c1OC (racemic) (as salt: hydrochloride) | 127.4 to 128.2 °C | –
16 | CS(=O)(=O)c1cccc(NC(=O)N[C@@H]2CCCC[C@H]2N2CCC(Cc3ccc(Cl)cc3)CC2)c1 (racemic) (as salt: hydrochloride) | 150.2 to 151.6 °C | –
17 | COc1cc(NC(=O)N[C@@H]2CC[C@@H]2N2CCC(Cc3ccc(Cl)cc3)CC2)cc(OC)c1OC (racemic) (as salt: hydrochloride) | 123.7 to 127.9 °C | –
18 | COc1cc(NC(=O)N[C@@H]2CCC[C@H]2N2CCC(Cc3ccc(Cl)cc3)CC2)cc(OC)c1OC (racemic) (as salt: hydrochloride) | 136.1 to 138 °C | –
19 | COc1cc(NC(=O)N[C@@H]2COC[C@H]2N2CCC(Cc3ccc(Cl)cc3)CC2)cc(OC)c1OC (racemic) (as salt: hydrochloride) | 229.2 to 230.9 °C | –

Row | Compound | melting point | IC50 (CCR-3 receptor)
20 | COc1cc(NC(=O)N[C@@H]2C[C@H](O)C[C@H]2N2CCC(Cc3ccc(Cl)cc3)CC2)cc(OC)c1OC (racemic) (as salt: hydrochloride) | 137 to 143 °C | –
21 | COc1cc(NC(=O)N[C@@H]2C[C@H](CO)C[C@H]2N2CCC(Cc3ccc(Cl)cc3)CC2)cc(OC)c1OC (racemic) (as salt: hydrochloride) | 138 to 143 °C | –
22 | COc1cc(NC(=O)N[C@@H]2CNC[C@H]2N2CCC(Cc3ccc(Cl)cc3)CC2)cc(OC)c1OC (racemic) (as salt: hydrochloride) [Example 9, (±)-trans-1-{4-[4-(4-chlorobenzyl)piperidin-1-yl]-pyrrolidin-3-yl}-3-(3,4,5-trimethoxyphenyl)urea dihydrochloride] | 157 to 170 °C | –
23 | CS(=O)(=O)c1ccc(C(=O)N[C@@H]2CCC[C@@H]2N2CCC(Cc3ccc(Cl)cc3)CC2)cc1 (racemic) (as salt: hydrochloride) [Example 11, (±)-cis-N-{2-[4-(4-chlorobenzyl)piperidin-1-yl]-cyclopentyl}-4-methanesulfonyl-benzamide hydrochloride] | 125.3 to 131.9 °C | –
24 | CS(=O)(=O)c1ccc(C(=O)N[C@@H]2CCCC[C@@H]2N2CCC(Cc3ccc(Cl)cc3)CC2)cc1 (racemic) (as salt: hydrochloride) [Example 14, (±)-cis-N-{2-[4-(4-chlorobenzyl)piperidin-1-yl]-cyclohexyl}-4-methanesulfonyl-benzamide hydrochloride] | 123.7 to 149.4 °C | –
25 | O=C(Nc1ccc2ccccc2n1)N[C@@H]1CCC[C@H]1N1CCC(Cc2ccc(Cl)cc2)CC1 (racemic) [Compound 1, (±)-trans-1-{2-[4-(4-chlorobenzyl)piperidin-1-yl]cyclopentyl}-3-quinolin-2-yl-urea] | – | 557 nM
26 | COc1cc(NC(=O)N[C@@H]2CCCC[C@H]2N2CCC(Cc3ccc(Cl)cc3)CC2)cc(OC)c1OC (racemic) [Example 1, (±)-trans-1-{2-[4-(4-chlorobenzyl)piperidin-1-yl]-cyclohexyl}-3-(3,4,5-trimethoxyphenyl)urea] | 196.9 to 200 °C | –
27 | COc1cc(NC(=O)N[C@@H]2C[C@H](O)C[C@H]2N2CCC(Cc3ccc(Cl)cc3)CC2)cc(OC)c1OC (racemic) [Example 6, (±)-1-{(1R,2R,4S)-2-[4-(4-chlorobenzyl)piperidin-1-yl]-4-hydroxy-cyclopentyl}-3-(3,4,5-trimethoxyphenyl)urea] | 98.7 to 102 °C | –
28 | COc1cc(NC(=O)N[C@@H]2CCC[C@H]2N2CCC(Cc3ccc(Cl)cc3)CC2)cc2ccccc12 (racemic) [Example 22, (±)-trans-1-{2-[4-(4-chlorobenzyl)piperidin-1-yl]-cyclopentyl}-3-(4-methoxy-naphthalen-2-yl)urea] | 175 to 190 °C | –
29 | CC(=O)Nc1cccc(NC(=O)N[C@@H]2CCC[C@H]2N2CCC(Cc3ccc(Cl)cc3)CC2)c1 [Compound 2] | – | 18.5 nM
30 | O=C(Nc1cccc(Cl)c1Cl)N[C@@H]1CCC[C@H]1N1CCC(Cc2ccc(Cl)cc2)CC1 [Compound 3] | – | 1140 nM
31 | O=C(NCCc1cccs1)N[C@@H]1CCC[C@H]1N1CCC(Cc2ccc(Cl)cc2)CC1 [Compound 4] | – | 864 nM
32 | O=C(N[C@@H]1CCC[C@H]1N1CCC(Cc2ccc(Cl)cc2)CC1)c1cc2cc(Cl)ccc2[nH]1 [Compound 5] | – | 2690 nM
33 | CC(=O)c1cccc(C(=O)N[C@@H]2CCC[C@H]2N2CCC(Cc3ccc(Cl)cc3)CC2)c1 [Compound 6] | – | 1860 nM
34 | COc1cc(CC(=O)N[C@@H]2CCC[C@H]2N2CCC(Cc3ccc(Cl)cc3)CC2)cc(OC)c1OC [Compound 7] | – | 1480 nM
35 | O=[N+]([O-])c1ccccc1S(=O)(=O)N[C@@H]1CCC[C@H]1N1CCC(Cc2ccc(Cl)cc2)CC1 [Compound 8] | – | 6090 nM
36 | O=C(N[C@@H]1CCC[C@H]1N1CCC(Cc2ccc(Cl)cc2)CC1)OCc1ccc([N+](=O)[O-])cc1 [Compound 9] | – | 5120 nM
37 | COc1ccc(NC(=S)N[C@@H]2CCC[C@H]2N2CCC(Cc3ccc(Cl)cc3)CC2)cc1 [Compound 10] | – | 512 nM
